Assay results: a melting point compilation (Tetko et al.)

melting point	SMILES
36 to 40 °C	NCC(O)CN1CCOCC1 (stereo not drawn)
152 to 154 °C	N#Cc1cc(C(F)(F)F)ccc1O
63 to 65 °C	CC(Cl)C(=O)Nc1ccccc1Cl (stereo not drawn)
233 to 235 °C	Cc1nc2ccccc2n1CC(=O)NN
65 to 67 °C	COC(=O)c1cc(Cl)cc(Cl)c1N
156 to 158 °C	NS(=O)(=O)c1cnn(CC(=O)O)c1
191 to 193 °C	Cc1ccc(NC(=O)c2cccc(Cl)c2)c(C(=O)O)c1
258 to 260 °C	O=C(CCl)Nc1ccc(N2CCCC2=O)cc1
148 to 150 °C	CC(=O)c1ccc(-c2ccc(Br)s2)cc1
204 to 206 °C	Cc1ccc(NC(=O)C(=O)NN)cc1
239 to 241 °C	O=C(Nc1sc2c(c1C(=O)O)CCCC2)c1cccnc1
140 to 142 °C	O=C1NC(=O)C2(CCCC2)N1
234 to 236 °C	CCN(CC)S(=O)(=O)c1ccc(-c2csc(N)n2)cc1
177 to 179 °C	Cc1ccc(S(=O)(=O)NC(C(=O)O)C(C)O)cc1 (stereo not drawn)
179 to 181 °C	Cn1c(Cl)nnc1-c1ccc(Cl)cc1
159 to 161 °C	CC(C)(C)OC(=O)N1CCC(C(=O)O)(n2cccn2)CC1
58 to 60 °C	O=C(O)CC1CCc2ccccc21 (stereo not drawn)
133 to 135 °C	Cc1cc2occ(CC(=O)O)c2cc1C
185 to 187 °C	O=C(O)CCNC(=O)C12CC3CC(CC(C3)C1)C2
34 to 36 °C	Cc1ccnn1-c1ccccn1
123 to 125 °C	Nc1nc2ccccn2n1
72 to 74 °C	c1ccc(C2NCCn3cccc32)cc1 (stereo not drawn)
111 to 113 °C	CN1CCC(O)(c2ccccc2)CC1
150 to 154 °C	CN(C)c1ccc(S(N)(=O)=O)cc1N
165 to 167 °C	Nc1ccc(CN2CCC(CO)CC2)cc1

melting point	SMILES
83 to 85 °C	CC(C)N1C(=O)CNC1=O
146 to 148 °C	N#CCC(=O)c1cc2ccccc2o1
124 to 126 °C	COc1ccc(C2(C(=O)O)CCCCC2)cc1OC
221 to 223 °C	Nc1ccc2nc3n(c(=O)c2c1)CCC3
73 to 75 °C	O=C1C=CC(=O)N1c1cc([N+](=O)[O-])ccc1Cl
95 to 97 °C	CC(=O)Nc1ccc(C)c(S(=O)(=O)Cl)c1
73 to 75 °C	CC(NO)c1ccccc1 (stereo not drawn)
239 to 241 °C	O=c1[nH]c2ccccc2cc1CO
216 to 218 °C	O=C(O)c1ccc2nnnn2c1
158 to 160 °C	Cc1noc2nc(C(C)C)cc(C(=O)O)c12
86 to 88 °C	CCOC(=O)c1nn(-c2ccccc2)cc1O
139 to 141 °C	COc1cc(OC)c(S(=O)(=O)Cl)cc1S(=O)(=O)Cl
56 to 58 °C	Nc1cc(I)ccc1Cl
167 to 169 °C	O=C(O)CCc1nc2ccccc2oc1=O
156 to 158 °C	Cc1ccccc1Cc1nn[nH]n1
54 to 56 °C	O=C(O)C=CC1CCCCC1
44 to 46 °C	CC1CC(C(=O)O)CCO1 (stereo not drawn)
151 to 153 °C	O=S(=O)(Cl)c1ccc(S(=O)(=O)N2CCCCC2)cc1
112 to 114 °C	CS(=O)(=O)OCCn1cnc2ccsc2c1=O
94 to 96 °C	CS(=O)(=O)CCn1cc(Br)cn1
211 to 213 °C	Cc1nc(S)c2ccccc2n1
132 to 140 °C	O=C1CC2(CCCCC2)C(=O)N1
103 to 105 °C	CSC(=CC(=O)c1cccnc1)SC
225 to 227 °C	O=C(O)c1cc(-c2ccccc2Cl)[nH]n1
134 to 136 °C	O=S(=O)(Cl)c1ccc2oc3ccccc3c2c1

melting point	SMILES
140 to 142 °C	N#Cc1[nH]c(=O)n(Cc2ccccc2)c1NCc1ccccc1
145 to 147 °C	Nc1c(Br)ccc(Br)c1C(=O)O
103 to 105 °C	Cc1ccc(S(C)(=O)=O)c(N)c1
91 to 93 °C	O=C(NC=C(Cl)Cl)c1cccc(Br)c1
132 to 134 °C	CCc1nc2sccc2c(=O)n1N
108 to 110 °C	CNC1CCS(=O)(=O)c2ccc(Br)cc21 (stereo not drawn)
198 to 200 °C	O=C(O)c1csc(-c2ccc([N+](=O)[O-])cc2)n1
169 to 171 °C	Cn1cc(Br)cc1C(=O)NN
96 to 98 °C	CCc1ccc2c(c1)C(=O)C(=O)N2C
168 to 170 °C	Cc1cccc(NC(=O)Nc2cccc3c2NCCC3)c1
256 to 258 °C	Nc1ccc(C(=O)Nc2nccs2)cc1
117 to 119 °C	COC(=O)c1cccc(Oc2ccnc(Cl)n2)c1
81 to 83 °C	O=C(O)CCc1ccc2c(c1)OCCCO2
106 to 108 °C	COCc1nc(C(=O)O)cs1
139 to 141 °C	C=CCn1c(S)nc2cc(Cl)ccc2c1=O
73 to 75 °C	Fc1ccc(-n2nccc2Br)cc1
180 to 182 °C	C1C2CC3CC1CC(C2)C31CO1 (stereo not drawn)
145 to 147 °C	CC(C)C(NC(=O)c1ccc([N+](=O)[O-])cc1Cl)C(=O)O (stereo not drawn)
200 to 202 °C	CCOC(=O)c1sc(-c2ccc(Cl)cc2)cc1N
99 to 101 °C	CCOC(=O)C1=NN(c2ccccc2)C(C#N)C1 (stereo not drawn)
220 to 222 °C	Cc1cc(C)n(Cc2cccc(C(=O)O)c2)n1
80 to 82 °C	CCOC(=O)C1CCCNC1=O (stereo not drawn)
77 to 79 °C	Cc1ccc(S(=O)(=O)C2CCCCC2=O)cc1 (stereo not drawn)
180 to 182 °C	CC1=CSC(=C(C#N)N=O)N1
220 to 222 °C	O=C(O)c1ccnc(Br)c1[N+](=O)[O-]

melting point	SMILES
73 to 75 °C	O=C(CCl)N(Cc1ccc(F)cc1)C1CCCCC1
249 to 251 °C	O=c1[nH]c(CCl)nc2ccc(Cl)cc12
275 to 277 °C	Cc1ccc2nc(S)n(C)c(=O)c2c1
87 to 89 °C	Nc1cc(F)ccc1OCC1CCCO1 (stereo not drawn)
72 to 74 °C	Nc1cc(Br)cnc1-n1cccn1
65 to 67 °C	N#Cc1ccc(F)c(Cl)c1Cl
72 to 74 °C	Cc1ccc(N)cc1S(C)(=O)=O
173 to 175 °C	Cn1ccnc1Sc1ccc(C=O)cc1[N+](=O)[O-]
116 to 118 °C	NS(=O)(=O)c1ccccc1-c1ccccc1
144 to 146 °C	COCCNc1ccc(S(C)(=O)=O)cc1N
182 to 184 °C	Nc1cccc(-c2nnc[nH]2)c1
92 to 94 °C	CC1CCCN(S(=O)(=O)c2ccc(CN)cc2)C1 (stereo not drawn)
64 to 66 °C	NC(=O)N1CCC(N)CC1
163 to 165 °C	O=C(O)c1c(C2CC2)nc2sccn12
69 to 71 °C	O=C1CCCN1c1cccc(Br)c1
118 to 120 °C	CCOc1ccc(C2(C(=O)O)CC2)cc1
135 to 137 °C	CC(C)Oc1ccc([N+](=O)[O-])c(C(=O)O)c1
211 to 213 °C	CS(=O)(=O)N1CCN(C(=O)c2ccc(O)cc2)CC1
139 to 141 °C	CCN(C(=O)OC(C)(C)C)C(C(N)=S)c1cccnc1 (stereo not drawn)
190 to 192 °C	Cn1ccc2cc[nH]c(=O)c21
185 to 187 °C	Cc1sc2nc(Cn3cnc([N+](=O)[O-])c3)nc(Cl)c2c1C
44 to 46 °C	BrCc1cnn(-c2ccccc2)n1
209 to 211 °C	CN(C)c1cccc(-c2nnc(S)n2N)c1
116 to 118 °C	O=C(O)C1CC1c1cccc2ccccc12 (stereo not drawn)

SMILES	melting point
Cc1ccc(C(=O)CCl)cc1	53 to 57 °C
NS(=O)(=O)c1ccc(N2CCNCC2)cc1	219 to 221 °C
CCc1c(O)nc(S)n(-c2ccccc2C)c1=O	178 to 180 °C
N#CC(Cl)c1c(F)cccc1Cl (stereo not drawn)	49 to 51 °C
